Measurements: paper PMC7083148, “Identification of a General Odorant Receptor for Repellents in the Asian Corn Borer Ostrinia furnacalis” (Frontiers in Physiology, 2020)

target: T1, OfurOR27 (Ostrinia furnacalis, UniProt A0A0E4B5I0); experiment: two-electrode voltage clamp in Xenopus oocytes co-expressing OfurOR27/OfurOrco, dose-response; type: cell-based
T1 construct: gene OR27; full-length ORF (402 amino acids); with OfurOrco (OfurOR2)
T1 sequence (A0A0E4B5I0 1-401): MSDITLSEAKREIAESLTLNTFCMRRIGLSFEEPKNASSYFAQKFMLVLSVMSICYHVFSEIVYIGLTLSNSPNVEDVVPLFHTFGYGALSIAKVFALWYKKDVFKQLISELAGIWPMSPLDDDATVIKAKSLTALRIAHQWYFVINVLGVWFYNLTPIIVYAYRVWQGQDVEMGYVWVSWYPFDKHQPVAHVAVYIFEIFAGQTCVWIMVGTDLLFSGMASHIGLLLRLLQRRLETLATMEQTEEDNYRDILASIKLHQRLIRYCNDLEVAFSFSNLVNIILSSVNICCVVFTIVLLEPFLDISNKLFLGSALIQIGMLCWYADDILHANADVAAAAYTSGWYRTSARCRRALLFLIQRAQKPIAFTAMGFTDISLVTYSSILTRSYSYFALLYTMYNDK
T1 sequence (A0A0E4B591 1-474 partner): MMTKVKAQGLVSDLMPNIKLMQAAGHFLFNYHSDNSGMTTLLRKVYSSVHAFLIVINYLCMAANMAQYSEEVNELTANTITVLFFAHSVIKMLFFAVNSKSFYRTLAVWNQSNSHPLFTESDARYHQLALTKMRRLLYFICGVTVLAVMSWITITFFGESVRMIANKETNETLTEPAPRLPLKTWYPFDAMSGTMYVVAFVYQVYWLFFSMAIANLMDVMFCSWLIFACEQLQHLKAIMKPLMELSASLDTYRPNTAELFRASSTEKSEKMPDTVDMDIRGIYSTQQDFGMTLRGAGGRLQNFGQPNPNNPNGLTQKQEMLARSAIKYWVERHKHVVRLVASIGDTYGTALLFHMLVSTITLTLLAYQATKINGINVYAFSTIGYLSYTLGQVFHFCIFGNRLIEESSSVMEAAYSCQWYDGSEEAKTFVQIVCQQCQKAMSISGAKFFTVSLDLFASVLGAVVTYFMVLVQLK

Compared with `CCCCCCCCC=O` [nonanal], `CCCCCCCC=O` [octanal] is 3.2-fold higher in EC50: 0.367 µM for the first, 1.18 µM for the second.

Compound `CCCCCCCCO` [1-octanol] has an EC50 of 14.1 µM.
